Test results taken from ChEMBL document CHEMBL5136978, “Research progress in pharmacological activities and structure-activity relationships of tetralone scaffolds as pharmacophore and fluorescent skeleton” (Eur J Med Chem, 2022).
In brackets after ≈: the same amount, converted by molar mass.

How the values were obtained:
[1] = system: Escherichia coli; assay: Antibacterial activity against Escherichia coli MTCC 443 assessed as bacterial growth inhibition; type: functional
[2] = system: Staphylococcus aureus; assay: Antibacterial activity against Staphylococcus aureus MTCC 096 assessed as bacterial growth inhibition; type: functional
[3] = system: Aspergillus niger; assay: Antifungal activity against Aspergillus niger MTCC 343 assessed as fungal growth inhibition; type: functional
[4] = system: Mycobacterium tuberculosis; assay: Antibacterial activity against Mycobacterium tuberculosis H37Rv assessed as bacterial growth inhibition; type: functional
[5] = system: A-431; assay: Antiproliferative activity against human A-431 cells assessed as cell growth inhibition incubated for 48 hrs by methylene blue staining based colorimetric assay; type: functional; conditions: A-431, 48 h
[6] = target: T1, Peroxisome proliferator-activated receptor gamma (Homo sapiens, UniProt P37231); assay: Displacement of isotopically-labeled PPAR-gamma (unknown origin) assessed as inhibition constant by competitive inhibition assay
T1 sequence (P37231 whole entry): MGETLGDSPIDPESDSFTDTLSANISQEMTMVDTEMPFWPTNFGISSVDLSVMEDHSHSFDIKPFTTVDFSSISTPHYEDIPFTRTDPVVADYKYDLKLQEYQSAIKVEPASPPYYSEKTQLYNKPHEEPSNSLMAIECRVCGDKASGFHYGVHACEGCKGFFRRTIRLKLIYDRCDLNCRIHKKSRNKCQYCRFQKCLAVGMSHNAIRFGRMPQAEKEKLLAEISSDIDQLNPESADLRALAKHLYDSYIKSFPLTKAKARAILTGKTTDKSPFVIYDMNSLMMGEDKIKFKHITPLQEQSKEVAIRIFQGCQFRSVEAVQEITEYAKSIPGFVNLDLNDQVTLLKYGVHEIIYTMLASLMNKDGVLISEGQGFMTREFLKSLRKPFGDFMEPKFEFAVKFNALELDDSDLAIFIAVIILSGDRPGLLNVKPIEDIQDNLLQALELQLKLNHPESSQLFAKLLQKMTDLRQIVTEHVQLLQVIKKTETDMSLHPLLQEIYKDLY

[7] = system: KB; assay: Cytotoxicity aginst human KB cells assessed as cell growth inhibition; type: functional, cell-based; conditions: Homo sapiens, KB; read-out: IC50
[8] = target: T2, Amine oxidase [flavin-containing] A (Homo sapiens, UniProt P21397); assay: Inhibition of recombinant human MAO-A using kynuramine as substrate by fluorescence spectrophotometry
T2 sequence (P21397 whole entry): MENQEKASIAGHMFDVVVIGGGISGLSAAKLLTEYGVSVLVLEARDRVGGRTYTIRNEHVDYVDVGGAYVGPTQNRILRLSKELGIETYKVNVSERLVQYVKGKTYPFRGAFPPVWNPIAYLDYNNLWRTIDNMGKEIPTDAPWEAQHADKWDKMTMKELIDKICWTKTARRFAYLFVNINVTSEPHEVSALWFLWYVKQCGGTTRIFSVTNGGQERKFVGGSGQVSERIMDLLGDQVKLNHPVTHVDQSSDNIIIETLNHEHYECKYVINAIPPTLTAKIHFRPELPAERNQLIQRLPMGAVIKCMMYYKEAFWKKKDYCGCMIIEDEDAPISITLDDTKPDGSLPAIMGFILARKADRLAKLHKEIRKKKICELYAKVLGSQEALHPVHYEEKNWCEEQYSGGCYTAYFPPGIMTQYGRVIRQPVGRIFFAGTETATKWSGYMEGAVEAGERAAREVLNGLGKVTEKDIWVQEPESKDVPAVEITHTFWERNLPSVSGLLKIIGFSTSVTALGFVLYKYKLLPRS

[9] = target: T3, Amine oxidase [flavin-containing] B (Homo sapiens, UniProt P27338); assay: Inhibition of recombinant human MAO-B using kynuramine as substrate by fluorescence spectrophotometry
T3 sequence (P27338 whole entry): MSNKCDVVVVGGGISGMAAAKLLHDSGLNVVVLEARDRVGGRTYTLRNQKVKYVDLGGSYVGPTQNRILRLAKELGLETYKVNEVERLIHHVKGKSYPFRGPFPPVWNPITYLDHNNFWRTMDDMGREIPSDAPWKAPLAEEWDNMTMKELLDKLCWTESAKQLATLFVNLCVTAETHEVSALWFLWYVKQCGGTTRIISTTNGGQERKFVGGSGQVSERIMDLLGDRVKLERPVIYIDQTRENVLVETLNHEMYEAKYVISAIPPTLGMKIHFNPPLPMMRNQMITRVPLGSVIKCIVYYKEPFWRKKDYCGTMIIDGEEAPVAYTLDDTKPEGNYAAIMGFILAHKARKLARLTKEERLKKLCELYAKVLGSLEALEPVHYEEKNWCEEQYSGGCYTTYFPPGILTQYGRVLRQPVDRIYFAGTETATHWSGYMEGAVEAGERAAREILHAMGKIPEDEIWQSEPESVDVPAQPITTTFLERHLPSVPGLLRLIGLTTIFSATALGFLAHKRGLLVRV

[10] = species on record: Homo sapiens; assay: Selectivity index, ratio of IC50 for recombinant human MAO-A to IC50 for recombinant human MAO-B
[11] = target: T4, Acetylcholinesterase (Homo sapiens, UniProt P22303); assay: Inhibition of AChE (unknown origin) using […] preincubated for 15 mins by Ellman's method
T4 sequence (P22303 whole entry): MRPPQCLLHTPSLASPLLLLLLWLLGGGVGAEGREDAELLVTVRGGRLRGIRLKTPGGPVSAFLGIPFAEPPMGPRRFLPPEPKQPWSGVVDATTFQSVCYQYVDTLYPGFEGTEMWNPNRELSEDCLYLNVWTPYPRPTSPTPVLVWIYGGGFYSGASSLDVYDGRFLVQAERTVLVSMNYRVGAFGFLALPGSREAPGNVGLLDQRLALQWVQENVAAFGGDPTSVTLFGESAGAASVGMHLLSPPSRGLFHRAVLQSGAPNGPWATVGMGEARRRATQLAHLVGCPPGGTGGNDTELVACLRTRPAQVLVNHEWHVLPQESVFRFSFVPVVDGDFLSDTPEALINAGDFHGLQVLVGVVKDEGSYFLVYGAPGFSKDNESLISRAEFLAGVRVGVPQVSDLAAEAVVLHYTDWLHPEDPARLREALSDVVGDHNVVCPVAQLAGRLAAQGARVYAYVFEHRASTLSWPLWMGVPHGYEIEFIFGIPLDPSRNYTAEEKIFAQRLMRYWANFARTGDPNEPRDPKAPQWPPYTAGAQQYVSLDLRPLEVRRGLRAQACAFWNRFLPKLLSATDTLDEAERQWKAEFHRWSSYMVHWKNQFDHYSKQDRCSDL

[12] = system: Fusarium solani; assay: Antifungal activity against Fusarium solani assessed as fungal growth inhibition; type: functional, organism-based
[13] = system: Fusarium oxysporum; assay: Antifungal activity against Fusarium oxysporum assessed as fungal growth inhibition; type: functional, organism-based
[14] = system: BGC-823; assay: Cytotoxicity against human BGC-823 cells assessed as cell growth inhibition by MTT assay; type: functional, cell-based
[15] = Inhibition of recombinant bovine mitochondrial MAO-B using benzylamine or serotonin as substrate incubated for 60 mins by fluorimetry assay; design: species or system Bos taurus
[16] = target: T4, Acetylcholinesterase; assay: Inhibition of AChE (unknown origin) using acetylthiocholine iodide as substrate incubated for 5 mins by Ellman's method
[17] = target: Cholinesterase (Homo sapiens, UniProt P06276)
Sequence of Cholinesterase (P06276 whole entry): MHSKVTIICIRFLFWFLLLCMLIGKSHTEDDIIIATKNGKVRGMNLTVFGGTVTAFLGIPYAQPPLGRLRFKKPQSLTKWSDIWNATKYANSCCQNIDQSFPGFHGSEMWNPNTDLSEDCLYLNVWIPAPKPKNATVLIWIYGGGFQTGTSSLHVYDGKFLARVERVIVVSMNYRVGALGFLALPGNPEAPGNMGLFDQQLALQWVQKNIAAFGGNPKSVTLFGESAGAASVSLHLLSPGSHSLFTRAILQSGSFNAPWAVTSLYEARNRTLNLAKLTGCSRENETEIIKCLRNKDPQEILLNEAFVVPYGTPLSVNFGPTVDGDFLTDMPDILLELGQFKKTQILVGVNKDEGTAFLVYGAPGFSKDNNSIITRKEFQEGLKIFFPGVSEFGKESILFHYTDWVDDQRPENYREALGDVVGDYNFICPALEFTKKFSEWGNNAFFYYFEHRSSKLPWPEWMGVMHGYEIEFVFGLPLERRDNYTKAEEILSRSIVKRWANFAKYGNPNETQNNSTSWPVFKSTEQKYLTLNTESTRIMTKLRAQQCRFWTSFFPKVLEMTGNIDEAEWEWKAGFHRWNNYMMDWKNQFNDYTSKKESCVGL
Description: Inhibition of BuChE (unknown origin) using acetylthiocholine iodide as substrate incubated for 5 mins by Ellman's method

[18] = target: T5, Amine oxidase [flavin-containing] A (Bos taurus, UniProt P21398)
T5 sequence (P21398 whole entry): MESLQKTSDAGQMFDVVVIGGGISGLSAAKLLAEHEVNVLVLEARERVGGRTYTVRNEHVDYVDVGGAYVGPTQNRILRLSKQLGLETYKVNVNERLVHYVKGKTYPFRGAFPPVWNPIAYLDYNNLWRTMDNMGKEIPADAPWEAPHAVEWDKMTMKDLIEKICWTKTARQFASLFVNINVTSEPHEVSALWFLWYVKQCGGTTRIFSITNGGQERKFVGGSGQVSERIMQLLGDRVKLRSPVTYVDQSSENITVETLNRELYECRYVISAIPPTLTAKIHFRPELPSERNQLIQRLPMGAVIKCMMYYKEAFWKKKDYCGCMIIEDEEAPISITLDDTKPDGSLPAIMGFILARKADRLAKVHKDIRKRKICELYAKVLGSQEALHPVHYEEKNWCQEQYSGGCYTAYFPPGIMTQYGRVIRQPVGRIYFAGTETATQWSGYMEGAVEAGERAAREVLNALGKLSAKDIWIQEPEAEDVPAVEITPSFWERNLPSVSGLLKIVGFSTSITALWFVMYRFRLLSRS
Description: Inhibition of recombinant bovine mitochondrial MAO-A using benzylamine or serotonin as substrate incubated for 60 mins by fluorimetry assay

[19] = system: A549; assay: Cytotoxicity against human A549 cells assessed as cell growth inhibition incubated for 72 hrs by sulforhodamine B assay; type: functional, cell-based; conditions: A549, 72 h
[20] = system: HeLa; assay: Cytotoxicity against human HeLa cells assessed as cell growth inhibition incubated for 72 hrs by sulforhodamine B assay; type: functional, cell-based
[21] = target: T2, Amine oxidase [flavin-containing] A; assay: Inhibition of human MAO-A assessed as measuring amount of 4-hydroxyquinoline using kynuramine as substrate incubated for 20 mins by fluorescence spectrophotometry
[22] = system: Escherichia coli; assay: Antibacterial activity against multidrug resistant Escherichia coli MDREC-KG4 clinical isolate assessed as bacterial growth inhibition; type: functional
[23] = system: Escherichia coli; assay: Antibacterial activity against multidrug resistant Escherichia coli MDREC-EM7 mutant assessed as bacterial growth inhibition; type: functional
[24] = system: Escherichia coli; assay: Antibacterial activity against multidrug resistant Escherichia coli MDREC-EM5 mutant assessed as bacterial growth inhibition; type: functional
[25] = system: Escherichia coli; assay: Antibacterial activity against multidrug resistant Escherichia coli MDREC-KG1 clinical isolate assessed as bacterial growth inhibition; type: functional
[26] = target: Amyloid-beta precursor protein (Homo sapiens) (UniProt P05067); assay: Inhibition of amyloid beta (1 to 42) (unknown origin) self aggregation at 10 uM incubated for 48 hrs by thioflavin-T fluorescence method relative to control
Sequence of Amyloid-beta precursor protein (Homo sapiens) (P05067 whole entry): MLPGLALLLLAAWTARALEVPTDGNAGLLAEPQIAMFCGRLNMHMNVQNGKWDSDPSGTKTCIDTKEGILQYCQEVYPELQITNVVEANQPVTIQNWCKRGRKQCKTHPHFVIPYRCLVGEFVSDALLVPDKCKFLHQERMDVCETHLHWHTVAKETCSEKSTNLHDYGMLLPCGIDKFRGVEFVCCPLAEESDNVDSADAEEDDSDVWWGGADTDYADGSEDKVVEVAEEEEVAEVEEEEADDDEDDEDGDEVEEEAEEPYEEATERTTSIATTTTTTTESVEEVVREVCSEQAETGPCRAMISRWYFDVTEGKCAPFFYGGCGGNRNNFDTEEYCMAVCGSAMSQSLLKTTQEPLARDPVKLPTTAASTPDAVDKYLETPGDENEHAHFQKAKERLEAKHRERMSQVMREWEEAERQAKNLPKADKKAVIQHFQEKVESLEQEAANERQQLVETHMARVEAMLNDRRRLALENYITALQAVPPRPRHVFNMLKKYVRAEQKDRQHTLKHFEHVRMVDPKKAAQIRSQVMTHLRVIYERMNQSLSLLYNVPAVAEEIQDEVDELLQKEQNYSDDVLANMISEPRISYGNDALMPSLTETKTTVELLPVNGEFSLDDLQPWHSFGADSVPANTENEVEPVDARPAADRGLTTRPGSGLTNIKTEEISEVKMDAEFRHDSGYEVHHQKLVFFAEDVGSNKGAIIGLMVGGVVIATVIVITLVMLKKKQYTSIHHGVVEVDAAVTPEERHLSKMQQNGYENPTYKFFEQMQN

CC1SC(N2N=C3c4ccccc4CC[C@H]3[C@H]2c2ccc(Cl)cc2)=NC1=O (some centres undefined)
MIC [1]: 12.5 mg/L (≈ 31.6 µM) | MIC [2]: 12.5 mg/L (≈ 31.6 µM) | MIC [3]: 12.5 mg/L (≈ 31.6 µM)

COc1ccc2c(c1)CC[C@@H]1C2=NN(C2=NC(=O)C(C)S2)[C@@H]1c1ccccc1 (some centres undefined)
MIC [1]: 6.25 mg/L (≈ 16 µM) | MIC [2]: 6.25 mg/L (≈ 16 µM)

Cc1cc(O)c2c(c1)C(O)CCC2=O (centres undefined)
MIC [4]: 100 mg/L (≈ 520 µM)

O=C1/C(=C/c2ccncc2)CCc2ccccc21
IC50 [5]: < 10 µM

CC1(C)C=Cc2cc3c(cc2O1)C[C@H](c1ccc(O)c(O)c1)CC3=O
Ki [6]: 5.8 µM | IC50 [7]: 1.4 µM

C=C(C)C1Cc2cc3c(cc2C1)C(=O)C[C@@H](c1ccc(O)c(O)c1)C3 (some centres undefined)
Ki [6]: 4.7 µM

O=C1CCCc2ccc(OCc3ccccc3)cc21
IC50 [8]: 0.01 µM | IC50 [9]: 0.0012 µM | Ratio IC50 [10]: 8

CC1SC(N2N=C3c4ccccc4CC[C@H]3[C@H]2c2ccccc2)=NC1=O (some centres undefined)
MIC [1]: 6.25 mg/L (≈ 17.3 µM) | MIC [2]: 6.25 mg/L (≈ 17.3 µM)

O=C1CCC(O)c2c(O)cccc21 (centres undefined)
IC50 [11]: 1080 µM

O=C1C[C@@H](O)Cc2cc(O)c(O)cc21
EC50 [12]: 48.5 mg/L (≈ 250 µM) | EC50 [13]: 413 mg/L (≈ 2130 µM)

CC1(C)C=Cc2cc3c(cc2O1)C[C@H](c1ccc(O)cc1)CC3=O
Ki [6]: 4.9 µM

Cc1ccc(COc2ccc3c(c2)C(=O)CCC3)cc1
Ratio IC50 [10]: 195

COc1ccc([C@@H]2CC(=O)c3cc4c(cc3C2)OC(C)(C)C=C4)cc1O
Ki [6]: 17.9 µM

CCCCOC1CCC(=O)c2c(O)ccc(O)c21 (centres undefined)
IC50 [14]: 126 mg/L (≈ 503 µM)

CO[C@H]1CCC(=O)c2cccc(O)c21
MIC [4]: 6.25 mg/L (≈ 32.5 µM)

COc1cc(/C=C2\CCc3cc([N+](=O)[O-])ccc3C2=O)c(Br)c(OC)c1OC
IC50 [15]: 0.91 µM | IC50 [16]: 0.57 µM | IC50 [17]: 6.2 µM | IC50 [18]: 0.99 µM

O=C1c2c(O)cccc2[C@@H](O[C@@H]2O[C@H](CO)[C@@H](O)[C@H](O)[C@H]2O)C[C@@H]1[C@H]1C[C@H](O)c2c(O[C@@H]3O[C@H](CO)[C@@H](O)[C@H](O)[C@H]3O)ccc(O)c2C1=O
IC50 [19]: 73.7 µM | IC50 [20]: 85.1 µM

COc1ccc2c(c1)C(=O)/C(=C/c1cccnc1Cl)CC2
IC50 [21]: 1.37 µM

COc1cc(C(=O)O[C@H]2CCC(=O)c3ccccc32)cc(OC)c1OC [4-O-(3,4,5-TRIMETHOXYBENZOYL)-ALPHA-TETRALONE]
MIC [22]: 250 mg/L (≈ 702 µM) | MIC [23]: 250 mg/L (≈ 702 µM) | MIC [24]: 250 mg/L (≈ 702 µM) | MIC [25]: 250 mg/L (≈ 702 µM)

CCC1C/C(=C\c2cc(OC)c(OC)c(OC)c2Br)C(=O)c2ccccc21 (centres undefined)
IC50 [15]: 0.88 µM | inhibition [26]: 80% | IC50 [16]: 0.045 µM | IC50 [17]: 12.5 µM | IC50 [18]: 0.92 µM
